Consider two molecules from patent publication US20070082893A1, “Active substance combination” (LABORATORIOS DEL DR. ESTEVE S.A, priority 2004, published 2007).

Data set [1] relates to male Swiss mice. Kind of data set: Hot plate test in mice. The data set is classed as in vivo. The following applies: hot plate 55° C., Cizolirtine (as Citrate salt) 20 mg/kg i.p., Morphine 5 mg/kg s.c., combination 20 + 5 mg/kg; for % Analgesic activity 0.5 hours: 0.5 hours after administration; for % Analgesic activity 1 hour: 1 hour after administration; for % Analgesic activity 2 hours: 2 hours after administration. How it is done:
The analgesic activity of the inventive active substance combination is determined in male Swiss mice (weight 20-25 g, Harlan Iberica, S. Feliu de Codinas, Barcelona, Spain) as described in the publication of G. Woolfe and A. D. MacDonald, J. Pharm. Exp. Ther. 1944, 80, pages 300-307. The respective description of this publication is incorporated by reference and forms part of the present disclosure.
According to this test the mice are put onto a plate, which is heated to 55° C. and the time is determined until the mice show signs of pain such as vigorous and repeated licking of the paws, jumping or pulling back the paws. The mice are kept on the hot plate for no longer than 40 seconds in order to avoid the development of cutaneous lesions. At first the untreated mice are subjected to the hot-plate test to determine a baseline for their pain induced behaviour. After 10 minutes the vehicle, the active substances and the inventive active substance combination to be tested are administered to different groups of mice. 0.5 hours, 1 hour and 2 hours after the administration the animals are put onto the hot plate and the time is measured until they show signs of pain. The analgesic efficacy of the active substances or active substance combination is calculated on the basis of the values obtained for the comparison group of mice which is only administered the vehicle.
(In hot-plate and tail-flick tests a longer latency is read as antinociception.)

The subject of data set [2] is male Swiss albino mice. How it is done:
Pharmacodyn. 1971, 190, pages 213-218 in male Swiss albino mice (weight 20-25 g, Harlan Iberica, S. Feliu de Codinas, Barcelona, Spain).
Opioid dependency is developed in the mice by intraperitoneal administration of the opioid in a suitable dose known to those skilled in the art, e.g. 5 mg/kg/day for 4 consecutive days for morphine. Withdrawal symptoms are then induced by the intravenous administration of a suitable opioid antagonist in a dose known to those skilled in the art, for example, 2 mg/kg naloxone in case of morphine, 30 minutes after the administration of the final dose of the opioid is completed.
In the 30 minute period following the naloxone administration the mice show typical withdrawal symptoms, namely jumps and shakes (of the wet dog shake type), which are counted and registered.
The active substance combination is also administered to the mice for 4 consecutive days. After the administration of 2 mg/kg naloxone 30 minutes after the administration of the final dose of the active substance combination has been completed, the mice are closely watched for withdrawal symptoms, namely jumps and shakes (of the wet dog shake type), which are then counted and registered.
The influence of the active substance combination on withdrawal symptoms has been determined as described above.

Where [3] appears, read: 30 minute period after 2 mg/kg naloxone, Morphine 5 mg/kg/day s.c. over 4 days, alone or with Cizolirtine citrate 40 mg/kg/day i.p.

For the molecule `CN(C)CCOC(c1ccccc1)c1ccnn1C.O=C(O)CC(O)(CC(=O)O)C(=O)O` (racemic) [Cizolirtine, (±)-5-[α-[2-(Dimethylamino)ethoxy]benzyl]-1-methyl-1H-pyrazole citrate], in data set [1], the “% Analgesic activity 0.5 hours” value is reported as 25.8%, the “% Analgesic activity 1 hour” value is recorded as 17.1% and the “% Analgesic activity 2 hours” value was found to be 23.4%. Moreover, the “withdrawal symptoms associated with morphine on co-administration (in words)” value in data set [2] (table B, co-administered with morphine, opioid amount not reduced) is on record as “significantly reduced”.

Turning to `CN1CC[C@]23c4c5ccc(O)c4O[C@H]2[C@@H](O)C=C[C@H]3[C@H]1C5` [Morphine], in data set [1], the “% Analgesic activity 0.5 hours” value was 48.6%, the “% Analgesic activity 1 hour” value amounted to 34.8% and the “% Analgesic activity 2 hours” value worked out at 15.8%. In data set [2] (setting [3]), the Number of jumps is recorded as 6.6 and the Number of shakes worked out at 16.3.
